From patent US7371766B2, “Curcumin analogs with anti-tumor and anti-angiogenic properties” (Emory University, priority 1999, dated 2008)

Tests used:
[1] = system: HS 578T; settings: read-out: Median Growth Inhibitory Concentration (GI50), Breast Cancer, 48 hours
[2] = system: RXF 393; settings: read-out: Median Growth Inhibitory Concentration (GI50); RXF 393, Renal Cancer; 48 hours
[3] = system: SK-MEL-2; settings: read-out: Median Growth Inhibitory Concentration (GI50); SK-MEL-2, Melanoma; 48 hours
[4] = system: UO-31; settings: read-out: Median Growth Inhibitory Concentration (GI50); UO-31, Renal Cancer; 48 hours
[5] = system: T-47D; settings: read-out: Median Growth Inhibitory Concentration (GI50), Breast Cancer, 48 hours
[6] = system: NCI-H460; settings: read-out: Median Growth Inhibitory Concentration (GI50); NCI-H460, Non-Small Cell Lung Cancer; 48 hours
[7] = system: HOP-92; settings: read-out: Median Growth Inhibitory Concentration (GI50); HOP-92, Non-Small Cell Lung Cancer; 48 hours
[8] = system: MCF-7; settings: read-out: Median Growth Inhibitory Concentration (GI50); MCF-7, Breast Cancer; 48 hours
[9] = system: SK-OV-3; settings: read-out: Median Growth Inhibitory Concentration (GI50); SK-OV-3, Ovarian Cancer; 48 hours
[10] = system: RPMI-8226; settings: read-out: Median Growth Inhibitory Concentration (GI50); RPMI-8226, Leukemia; 48 hours
[11] = system: A498; settings: read-out: Median Growth Inhibitory Concentration (GI50); A498, Renal Cancer; 48 hours
[12] = system: HL-60 (TB); settings: read-out: Median Growth Inhibitory Concentration (GI50), Leukemia, 48 hours
[13] = system: HOP-62; settings: read-out: Median Growth Inhibitory Concentration (GI50); HOP-62, Non-Small Cell Lung Cancer; 48 hours
[14] = system: SNB-19; settings: read-out: Median Growth Inhibitory Concentration (GI50); SNB-19, CNS Cancer; 48 hours
[15] = system: COLO 205; settings: read-out: Median Growth Inhibitory Concentration (GI50); COLO 205, Colon Cancer; 48 hours
[16] = system: TK-10; settings: read-out: Median Growth Inhibitory Concentration (GI50); TK-10, Renal Cancer; 48 hours
[17] = system: BT-549; settings: read-out: Median Growth Inhibitory Concentration (GI50); BT-549, Breast Cancer; 48 hours
[18] = system: SN12C; settings: read-out: Median Growth Inhibitory Concentration (GI50), Renal Cancer, 48 hours
[19] = system: U251; settings: read-out: Median Growth Inhibitory Concentration (GI50); U251, CNS Cancer; 48 hours
[20] = system: OVCAR-5; settings: read-out: Median Growth Inhibitory Concentration (GI50); OVCAR-5, Ovarian Cancer; 48 hours
[21] = system: HT29; settings: read-out: Median Growth Inhibitory Concentration (GI50); HT29, Colon Cancer; 48 hours
[22] = system: SK-MEL-5; settings: read-out: Median Growth Inhibitory Concentration (GI50); SK-MEL-5, Melanoma; 48 hours
[23] = system: SR; settings: read-out: Median Growth Inhibitory Concentration (GI50), Leukemia, 48 hours
[24] = system: NCI-H522; settings: read-out: Median Growth Inhibitory Concentration (GI50); NCI-H522, Non-Small Cell Lung Cancer; 48 hours
[25] = system: NCI-H226; settings: read-out: Median Growth Inhibitory Concentration (GI50); NCI-H226, Non-Small Cell Lung Cancer; 48 hours
[26] = system: CAKI-1; settings: read-out: Median Growth Inhibitory Concentration (GI50); CAKI-1, Renal Cancer; 48 hours

For `C(=C\c1ccccc1)/S/C=C/c1ccccc1` [EF15], the GI50 [1] was greater than 100 µM, the GI50 [2] was 23.5 µM and the GI50 [3] was 31.7 µM. It also gave a GI50 [4] of 96.8 µM, a GI50 [5] of 18.5 µM and a GI50 [6] greater than 100 µM. For the same compound, the GI50 [7] was greater than 100 µM, the GI50 [8] was 44.6 µM and the GI50 [9] was greater than 100 µM. The GI50 [10] was 49.8 µM, the GI50 [11] was 23.3 µM and the GI50 [12] was 49.9 µM. It also gave a GI50 [13] greater than 100 µM, a GI50 [14] greater than 100 µM and a GI50 [15] greater than 100 µM. It also gave a GI50 [16] greater than 100 µM, a GI50 [17] greater than 100 µM and a GI50 [18] greater than 100 µM. It also gave a GI50 [19] of 95.1 µM, a GI50 [20] greater than 100 µM and a GI50 [21] of 46.1 µM. For the same compound, the GI50 [22] was 53.9 µM, the GI50 [23] was 52 µM and the GI50 [24] was 69.9 µM. The GI50 [25] was greater than 100 µM and the GI50 [26] was greater than 100 µM.
In the case of “3,5-Bis(2-hydroxybenzylidene)-sulfone [EF11]”, the GI50 [1] is reported as 52.1 µM, the GI50 [2] is reported as 39 µM and the GI50 [3] is reported as 24 µM. For the same compound, the GI50 [4] was 28.4 µM, the GI50 [5] was 24.7 µM and the GI50 [6] was 30.7 µM. The GI50 [7] was 23.5 µM, the GI50 [8] was 28.7 µM and the GI50 [9] was greater than 100 µM. For the same compound, the GI50 [10] was 18.2 µM, the GI50 [11] was 34.2 µM and the GI50 [12] was 21.3 µM. It also gave a GI50 [13] of 83.3 µM, a GI50 [14] of 48 µM and a GI50 [15] of 39.6 µM. The GI50 [16] was 41.2 µM, the GI50 [17] was 32.9 µM and the GI50 [18] was 34.2 µM. The GI50 [19] was 35.7 µM, the GI50 [20] was 89.2 µM and the GI50 [21] was 45.9 µM. The GI50 [22] was 23.2 µM, the GI50 [23] was 21.5 µM and the GI50 [24] was 33.3 µM. The GI50 [25] was greater than 100 µM and the GI50 [26] was 29.2 µM.
